{"source": "patent US20130178441A1", "about": "“Methods for Extending Progression-Free Survival using 10-Propargyl-10-Deazaaminopterin” (ALLOS THERAPEUTICS, INC., priority 2010, published 2013)", "tested_on": "patients with relapsed or refractory PTCL", "experiment": "PROPEL analysis by treatment duration: treatment discontinuation and adverse events", "type": "in vivo, human", "method": "The pivotal PROPEL study of pralatrexate (FOLOTYN®) in patients with relapsed or refractory PTCL reported a rapid response to treatment in a heavily pretreated patient population. The majority of patients (63% of responders) responded by their first assessment at 7 weeks (the end of cycle 1). The present analysis assessed if there were any unique characteristics of patients who were unable to complete the first cycle of therapy and to assess the outcomes of patients who received ≧1 or ≧2 cycles of pralatrexate. Pralatrexate, a folate analog targeting dihydrofolate reductase, was approved in the United States for treatment of relapsed or refractory PTCL based on the PROPEL study. Methods: In PROPEL, patients received 30 mg/m^2 pralatrexate once weekly for 6 weeks in successive 7-week cycles. […] Cycle completion was determined receiving ≧1 dose in the following cycle. Thus, the subgroup of patients who completed ≧1 (n=64) includes those patients who only completed 1 cycle+the 43 who completed ≧2 cycles of treatment. […] However, the patients not completing cycle lwere more likely to have the angioimmunoblastic subtype (20% vs 6%). Patients in each subgroup received a median of 3 prior treatment regimens.\nThe most frequent reasons for treatment discontinuation were similar for patients with <1 cycle, ≧1 cycle or ≧2 cycles, although the incidence of discontinuation was lower for patients with ≧1 or 2 cycles. […] However, the percentage of patients in whom mucosal inflammation led to treatment discontinuation was similar (<1: 4%; ≧1: 6%; ≧2: 2%). […] Patients who were unable to complete cycle 1 were more likely to have quickly progressed through multiple lines of therapy and were more likely to have the angioimmunoblastic subtype, which a subtype is thought to have a different biology than other PTCL subtypes and lower chemosensitivity. Further analysis of this subtype is warranted.", "data": [{"molecule": "C#CCC(Cc1cnc2nc(N)nc(N)c2n1)c1ccc(C(=O)N[C@@H](CCC(=O)O)C(=O)O)cc1", "note": "(mixture of isomers) [Pralatrexate, (2S)-2-[[4-[(1RS)-1-[(2,4-diaminopteridin-6-yl)methyl]but-3-ynyl]benzoyl]amino]pentanedioic acid]", "values": [{"measurement": "Additional patients with dose reductions in cycle 2 due to mucosal inflammation who continued treatment", "setting": "4 patients", "result": 9, "unit": "%"}, {"measurement": "Discontinued due to adverse events (AEs)", "setting": "45 patients who did not complete cycle 1", "result": 29, "unit": "%"}, {"measurement": "Incidence of Grade 3-4 anemia", "setting": "<1 cycle", "result": 27, "unit": "%"}, {"measurement": "Incidence of Grade 3-4 mucosal inflammation", "setting": "<1 cycle", "result": 24, "unit": "%"}, {"measurement": "Incidence of Grade 3-4 thrombocytopenia", "setting": "<1 cycle", "result": 40, "unit": "%"}, {"measurement": "Patients in whom mucosal inflammation led to treatment discontinuation", "setting": "<1 cycle", "result": 4, "unit": "%"}, {"measurement": "Patients with dose reductions due to mucosal inflammation in cycle 1 who continued treatment", "setting": "Eight patients", "result": 13, "unit": "%"}, {"measurement": "Patients with a response to pralatrexate", "setting": "of the 4 patients with dose reductions in cycle 2 due to mucosal inflammation", "result": 3, "unit": "patients"}, {"measurement": "Patients with a response to pralatrexate", "setting": "of the 8 patients with dose reductions due to mucosal inflammation in cycle 1", "result": 4, "unit": "patients"}, {"measurement": "Incidence of Grade 3-4 anemia", "setting": "≧1 cycle", "result": 13, "unit": "%"}, {"measurement": "Incidence of Grade 3-4 mucosal inflammation", "setting": "≧1 cycle", "result": 19, "unit": "%"}, {"measurement": "Incidence of Grade 3-4 thrombocytopenia", "setting": "≧1 cycle", "result": 28, "unit": "%"}, {"measurement": "Patients in whom mucosal inflammation led to treatment discontinuation", "setting": "≧1 cycle", "result": 6, "unit": "%"}, {"measurement": "Incidence of Grade 3-4 anemia", "setting": "≧2 cycles", "result": 9, "unit": "%"}, {"measurement": "Incidence of Grade 3-4 mucosal inflammation", "setting": "≧2 cycles", "result": 12, "unit": "%"}, {"measurement": "Incidence of Grade 3-4 thrombocytopenia", "setting": "≧2 cycles", "result": 21, "unit": "%"}, {"measurement": "Patients in whom mucosal inflammation led to treatment discontinuation", "setting": "≧2 cycles", "result": 2, "unit": "%"}]}]}
